Source: PubChem BioAssay AID1963973 (Molecular Pharmacology Branch, DTP, NCI, 2024)

Test system: 883617-216-R-J1-PDC tumor spheroids, viability
Experiment: Anticancer human tumor 883617-216-R-J1-PDC patient-derived bladder carcinoma cell line growth inhibition [PI3K]
Details: spheroids with HUVEC and MSC; for IC50: curve of first compound; for viability, T/C: stronger effect = lower value
Method in brief: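 Tumor cells grown as multi-cell spheroids with HUVEC endothelial cells and MSC fibroblast-like stroma were treated with targeted agents combined with inavolisib, alpelisib, duvelisib or copanlisib. Doses fell in half-log steps from near clinical Cmax, else from 10 microM. Viability was measured.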
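Note: spheroids exposed to agents for 7 days before the viability read.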

In the case of CC1(C)CCC(Nc2ncc(C(F)(F)F)c(-c3c[nH]c4c(P(C)(C)=O)c(C#N)ccc34)n2)CN1 (centres undefined) + CC(Nc1ccc2c(c1)OCCn1cc(N3C(=O)OCC3C(F)F)nc1-2)C(N)=O, the IC50 (second compound 0.00316 µM) is reported as less than 0.0316 µM, the IC50 (second compound 0.01 µM) is reported as less than 0.0316 µM and the IC50 (second compound 0.0316 µM) is reported as less than 0.0316 µM. It also gave an IC50 (second compound 0.1 µM) of less than 0.0316 µM, an IC50 (second compound 0.316 µM) of less than 0.0316 µM and an IC50 (second compound 1 µM) of less than 0.0316 µM. The viability, T/C (second compound 0.00316 µM, first compound 0.0316 µM) was 31.5%, the viability, T/C (second compound 0.00316 µM, first compound 0.1 µM) was 17.9% and the viability, T/C (second compound 0.00316 µM, first compound 0.316 µM) was 17.6%. The viability, T/C (second compound 0.00316 µM, first compound 1 µM) was 14%, the viability, T/C (second compound 0.00316 µM, first compound 3.16 µM) was 6.49% and the viability, T/C (second compound 0.00316 µM, first compound 10 µM) was 0.36%. For the same compound, the viability, T/C (second compound 0.01 µM, first compound 0.0316 µM) was 30.4%, the viability, T/C (second compound 0.01 µM, first compound 0.1 µM) was 23.2% and the viability, T/C (second compound 0.01 µM, first compound 0.316 µM) was 19.7%. The viability, T/C (second compound 0.01 µM, first compound 1 µM) was 18.7%, the viability, T/C (second compound 0.01 µM, first compound 3.16 µM) was 6.21% and the viability, T/C (second compound 0.01 µM, first compound 10 µM) was 0.37%. The viability, T/C (second compound 0.0316 µM, first compound 0.0316 µM) was 30.2%, the viability, T/C (second compound 0.0316 µM, first compound 0.1 µM) was 18.7% and the viability, T/C (second compound 0.0316 µM, first compound 0.316 µM) was 21.8%. It also gave a viability, T/C (second compound 0.0316 µM, first compound 1 µM) of 14.3%, a viability, T/C (second compound 0.0316 µM, first compound 3.16 µM) of 4.74% and a viability, T/C (second compound 0.0316 µM, first compound 10 µM) of 0.17%. It also gave a viability, T/C (second compound 0.1 µM, first compound 0.0316 µM) of 25.5%, a viability, T/C (second compound 0.1 µM, first compound 0.1 µM) of 17.6% and a viability, T/C (second compound 0.1 µM, first compound 0.316 µM) of 19.1%. The viability, T/C (second compound 0.1 µM, first compound 1 µM) was 12.2%, the viability, T/C (second compound 0.1 µM, first compound 3.16 µM) was 4.58% and the viability, T/C (second compound 0.1 µM, first compound 10 µM) was 0.1%. It also gave a viability, T/C (second compound 0.316 µM, first compound 0.0316 µM) of 21.6%, a viability, T/C (second compound 0.316 µM, first compound 0.1 µM) of 15.4% and a viability, T/C (second compound 0.316 µM, first compound 0.316 µM) of 14.2%. The viability, T/C (second compound 0.316 µM, first compound 1 µM) was 10.8%, the viability, T/C (second compound 0.316 µM, first compound 3.16 µM) was 3% and the viability, T/C (second compound 0.316 µM, first compound 10 µM) was 0.12%. It also gave a viability, T/C (second compound 1 µM, first compound 0.0316 µM) of 13.9%, a viability, T/C (second compound 1 µM, first compound 0.1 µM) of 10.4% and a viability, T/C (second compound 1 µM, first compound 0.316 µM) of 9.92%. It also gave a viability, T/C (second compound 1 µM, first compound 1 µM) of 12.2%, a viability, T/C (second compound 1 µM, first compound 3.16 µM) of 2.77% and a viability, T/C (second compound 1 µM, first compound 10 µM) of 0.33%.

In the case of Cn1cnc2c(F)c(Nc3ccc(Br)cc3Cl)c(C(=O)NOCCO)cc21 + CC(Nc1ncnc2nc[nH]c12)c1cc2cccc(Cl)c2c(=O)n1-c1ccccc1, the IC50 (second compound 0.0316 µM) is reported as 0.0431 µM, the IC50 (second compound 0.1 µM) is reported as 0.0393 µM and the IC50 (second compound 0.316 µM) is reported as 0.0327 µM. The IC50 (second compound 1 µM) was 0.0227 µM, the IC50 (second compound 3.16 µM) was 0.0096 µM and the IC50 (second compound 10 µM) was less than 0.00949 µM. It also gave a viability, T/C (second compound 0.0316 µM, first compound 0.00949 µM) of 64.3%, a viability, T/C (second compound 0.0316 µM, first compound 0.03 µM) of 56.1% and a viability, T/C (second compound 0.0316 µM, first compound 0.0949 µM) of 39.5%. It also gave a viability, T/C (second compound 0.0316 µM, first compound 0.3 µM) of 33.4%, a viability, T/C (second compound 0.0316 µM, first compound 0.949 µM) of 33.5% and a viability, T/C (second compound 0.0316 µM, first compound 3 µM) of 19.9%. The viability, T/C (second compound 0.1 µM, first compound 0.00949 µM) was 66.4%, the viability, T/C (second compound 0.1 µM, first compound 0.03 µM) was 55% and the viability, T/C (second compound 0.1 µM, first compound 0.0949 µM) was 35.6%. The viability, T/C (second compound 0.1 µM, first compound 0.3 µM) was 28.8%, the viability, T/C (second compound 0.1 µM, first compound 0.949 µM) was 30% and the viability, T/C (second compound 0.1 µM, first compound 3 µM) was 19.7%. For the same compound, the viability, T/C (second compound 0.316 µM, first compound 0.00949 µM) was 68.8%, the viability, T/C (second compound 0.316 µM, first compound 0.03 µM) was 51% and the viability, T/C (second compound 0.316 µM, first compound 0.0949 µM) was 37.8%. For the same compound, the viability, T/C (second compound 0.316 µM, first compound 0.3 µM) was 28.4%, the viability, T/C (second compound 0.316 µM, first compound 0.949 µM) was 23.9% and the viability, T/C (second compound 0.316 µM, first compound 3 µM) was 19.6%. For the same compound, the viability, T/C (second compound 1 µM, first compound 0.00949 µM) was 60%, the viability, T/C (second compound 1 µM, first compound 0.03 µM) was 44.9% and the viability, T/C (second compound 1 µM, first compound 0.0949 µM) was 39.4%. It also gave a viability, T/C (second compound 1 µM, first compound 0.3 µM) of 28%, a viability, T/C (second compound 1 µM, first compound 0.949 µM) of 22.4% and a viability, T/C (second compound 1 µM, first compound 3 µM) of 19%. For the same compound, the viability, T/C (second compound 3.16 µM, first compound 0.00949 µM) was 50.3%, the viability, T/C (second compound 3.16 µM, first compound 0.03 µM) was 37% and the viability, T/C (second compound 3.16 µM, first compound 0.0949 µM) was 23.2%. It also gave a viability, T/C (second compound 3.16 µM, first compound 0.3 µM) of 20.6%, a viability, T/C (second compound 3.16 µM, first compound 0.949 µM) of 19% and a viability, T/C (second compound 3.16 µM, first compound 3 µM) of 11%. It also gave a viability, T/C (second compound 10 µM, first compound 0.00949 µM) of 31.2%, a viability, T/C (second compound 10 µM, first compound 0.03 µM) of 24.7% and a viability, T/C (second compound 10 µM, first compound 0.0949 µM) of 17.8%. For the same compound, the viability, T/C (second compound 10 µM, first compound 0.3 µM) was 13.3%, the viability, T/C (second compound 10 µM, first compound 0.949 µM) was 12.4% and the viability, T/C (second compound 10 µM, first compound 3 µM) was 8.11%.
